By IC50 is commonly meant the point on the concentration scale where inhibition reaches its midpoint.

What all share (format): cell-based
Experiment [1] has as its system Type III protein secretion of ExoU by P. aeruginosa PA103. The experiment can be described thus: Tertiary assay: Type III-dependent secretion of ExoU by P. aeruginosa PA103. The settings on record: Pseudomonas aeruginosa, read-out: ExoU IC50(uM). From the text:
Tertiary assay: inhibition of Type III protein secretion of effectors from a Pseudomonas aeruginosa system. Type III protein secretion is used by P. aeruginosa to secrete several essential virulence determinants. One effector of the type III protein secretion system of P. aeruginosa PA 103 is the virulence determinants ExoU.
The amount of Type III-dependent secretion of ExoU by P. aeruginosa PA103 can be determined in a cell-based assay by quantification of the 73.9 kDa ExoU protein secreted into the extracellular medium. Such quantitation can be achieved by growing strain PA 103 in a deferrated medium in the presence of nitrilotriacetic acid (an inducer of Type III protein secretion in P. aeruginosa) and either in the presence or absence of putative inhibitors. After a prolonged growth period, the cells are sedimented and the supernatants concentrated by ammonium sulfate precipitation. The proteins in the resuspended pellets are separated by electrophoresis on SDS-polyacrylamide gels. After staining gels with Colloidal Blue™, the 73.9 kDa ExoU band is quantitated by scanning through an imager. The effects of inhibitors on the intensity of the ExoU band may be measured relative to that of untreated controls.

In experiment [2] the test system is SPI1 type III protein secretion of SipB by S. enterica. The experiment is described as follows: Secondary assay: Type III-dependent protein secretion of the SipB polypeptide by S. enterica. To be noted: Salmonella enterica, read-out: SipB IC50(uM). The protocol:
Secondary assay: Type III-dependent protein secretion of the SipB polypeptide by S. enterica. The SipB protein of S. enterica is another effector of the SPI1 type III protein secretion system from S. enterica. In this cell-based procedure, the Type III-dependent secretion of SipB from the bacterial cytoplasm to the extracellular medium was measured through its reactivity with a cognate mouse monoclonal.
Salmonella enterica cells growing either in the presence or in the absence of inhibitors are induced for the production of SipB. Following an established period of growth the cells are sedimented and the amount of SipB present in the supernatant is quantified with a scanning imager following application of immunoblot techniques. Detection may employ an anti-SipB mouse monoclonal antibody (e.g., obtained from Jorge Galan, SUNY at Stony Brook, N.Y.) followed by treatment with commercially available sheep anti-mouse polyclonal antibody conjugated with horseradish peroxidase. Thereafter the membrane is treated with a peroxidase chemiluminescent substrate and exposed to film for an appropriate exposure time. Inhibition may be measured relative to untreated controls.

Experiment [3] relates to SPI1 type III protein secretion of SopE'-'Bla by Salmonella enterica. The experiment is described as follows: Primary assay: Type III protein secretion of the chimeric SopE'-'Bla polypeptide by Salmonella enterica. The settings on record: read-out: SopE IC50(uM). The method, boiled down: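 S. enterica grown under SPI1-favouring conditions was induced to express SopE′-′Bla (SopE secretion signal fused to signal-less TEM-1 β-lactamase) and cultured with or without compound for a set time. Secreted reporter was quantified by colorimetric hydrolysis of cell-impermeant nitrocefin added to the cultures.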

Take `O=C(N[C@@H](CSCc1ccccc1)C(=O)O)c1cc(N2CCN(c3ccccc3)CC2)nc(-c2ccc(C(F)(F)F)cc2)n1` [Compound 23, (R)-3-Benzylsulfanyl-2-{[6-(4-phenyl-piperazin-1-yl)-2-(4-trifluoromethylphenyl)-pyrimidine-4-carbonyl]amino}propionic acid]: the half-maximal inhibitory concentration (IC50) in experiment [1] came out at 73 µM; in experiment [2], 31.7 µM; in experiment [3], 3.3 µM.

For `O=C(N[C@@H](CSCc1ccccc1)C(=O)O)c1cc(N2CCN(c3ccccc3)CC2)nc(-c2ccc(Cl)cc2)n1` [Compound 24, (R)-3-Benzylsulfanyl-2-{[2-(4-chlorophenyl)-6-(4-phenyl-piperazin-1-yl)-pyrimidine-4-carbonyl]amino}propionic acid], the results for the IC50 in experiment [1], in experiment [2] and in experiment [3] were 46.9 µM, 39.2 µM and 5.45 µM, respectively.

Take `N#Cc1ccc(-c2nc(C(=O)N[C@@H](CSCc3ccccc3)C(=O)O)cc(N3CCN(c4ccccc4)CC3)n2)cc1` [Compound 25, (R)-3-Benzylsulfanyl-2-{[2-(4-cyanophenyl)-6-(4-phenyl-piperazin-1-yl)-pyrimidine-4-carbonyl]amino}propionic acid]: the concentration for half-maximal inhibition (IC50) stood at 57.2 µM in experiment [1], 51.9 µM in experiment [2] and 6.5 µM in experiment [3].

Turning to `O=C(N[C@@H](CSCc1ccccc1)C(=O)O)c1cc(N2CCN(c3ccccc3)CC2)nc(Cl)n1` [Compound 26, (R)-3-Benzylsulfanyl-2-{[2-chloro-6-(4-phenyl-piperazin-1-yl)pyrimidine-4-carbonyl]amino}propionic acid], the concentration for half-maximal inhibition (IC50) is > 100 µM in experiment [1], 46.8 µM in experiment [2] and 50.1 µM in experiment [3].

`CC1CCN(c2nc(C(=O)N[C@@H](CSCc3ccccc3)C(=O)O)cc(N3CCN(c4ccccc4)CC3)n2)CC1` [Compound 27, (R)-3-Benzylsulfanyl-2-{[2-(4-methylpiperidin-1-yl)-6-(4-phenyl-piperazin-1-yl)-pyrimidine-4-carbonyl]amino}propionic acid]: the figures for the IC50 in experiment [1], in experiment [2] and in experiment [3] were > 100 µM, 8.8 µM and 5.3 µM, respectively.

In the case of `C[C@@H](OCc1ccccc1)[C@H](NC(=O)c1cc(N2CCCCC2)nc(N2CCC(c3ccccc3)CC2)n1)C(=O)O` [Compound 30, (2S,3R)-3-Benzyloxy-2-{[2-(4-phenylpiperidin-1-yl)-6-piperidin-1-yl-pyrimidine-4-carbonyl]amino}butyric acid], the IC50 was > 100 µM in experiment [1], 17.9 µM in experiment [2] and 4.6 µM in experiment [3].

As to `O=C(N[C@@H](COCc1ccccc1)C(=O)O)c1cc(-c2ccc(Cl)c(Cl)c2)nc(N2CCN(c3ccccc3)CC2)n1` [Compound 32, (S)-3-Benzyloxy-2-{[6-(3,4-dichlorophenyl)-2-(4-phenyl-piperazin-1-yl)-pyrimidine-4-carbonyl]amino}propionic acid], the IC50 turned out to be 40.7 µM in experiment [1], 5.7 µM in experiment [2] and 3.2 µM in experiment [3].

With `Cc1cc(C(=O)NC(CSCc2ccccc2)C(=O)O)nc(-c2ccc(-c3ccccc3)cc2)n1` (stereo not drawn) [Compound 35, 3-Benzylsulfanyl-2-[(2-biphenyl-4-yl-6-methyl-pyrimidine-4-carbonyl)-amino]-propionic acid], the IC50 in experiment [1] is > 100 µM; in experiment [2], 59.2 µM; in experiment [3], 17.7 µM.

For `Cc1cc(C(=O)N[C@@H](COCc2ccccc2)C(=O)O)nc(-c2ccc(-c3ccccc3)cc2)n1` [Compound 36, (S)-3-Benzyloxy-2-[(2-biphenyl-4-yl-6-methyl-pyrimidine-4-carbonyl)amino]-propionic acid], the half-inhibitory concentration (IC50) in experiment [1] is > 100 µM; in experiment [2] it was 79.6 µM; in experiment [3], 32.7 µM.

With `CC1CCN(c2cc(C(=O)N[C@@H](COCc3ccccc3)C(=O)O)nc(-c3ccc(Oc4ccccc4)cc3)n2)CC1` [Compound 38, (S)-3-Benzyloxy-2-{[6-(4-methylpiperidin-1-yl)-2-(4-phenoxyphenyl)pyrimidine-4-carbonyl]amino}propionic acid], the values for the half-inhibitory concentration (IC50) in experiment [1], in experiment [2] and in experiment [3] were 82.8 µM, 7.1 µM and 1.3 µM, respectively.

Regarding `CC1CCN(c2cc(C(=O)NC(Cc3ccc(Cl)cc3)C(=O)O)nc(-c3ccc(Oc4ccccc4)cc3)n2)CC1` (stereo not drawn) [Compound 39, 3-(4-Chlorophenyl)-2-{[6-(4-methylpiperidin-1-yl)-2-(4-phenoxyphenyl)-pyrimidine-4-carbonyl]amino}propionic acid], the results for the half-inhibitory concentration (IC50) in experiment [1], in experiment [2] and in experiment [3] were 74.5 µM, 13.2 µM and 1.5 µM, respectively.

In the case of `CC1CCN(c2cc(C(=O)N[C@@H](CSCc3ccccc3)C(=O)O)nc(-c3ccc(-c4ccccc4)cc3)n2)CC1` [Compound 40, (R)-3-Benzylsulfanyl-2-{[2-biphenyl-4-yl-6-(4-methylpiperidin-1-yl)pyrimidine-4-carbonyl]amino}propionic acid], the IC50 is 61.2 µM in experiment [1], 23 µM in experiment [2] and 5.1 µM in experiment [3].

Consider `CC1CCN(c2cc(C(=O)N[C@@H](COCc3ccccc3)C(=O)O)nc(-c3ccc(-c4ccccc4)cc3)n2)CC1` [Compound 41, (S)-3-Benzyloxy-2-{[2-biphenyl-4-yl-6-(4-methylpiperidin-1-yl)pyrimidine-4-carbonyl]amino}propionic acid], for which the IC50 in experiment [1] is 67.4 µM; in experiment [2], 28.6 µM; in experiment [3] it was 2.4 µM.

Turning to `CC1CCN(c2cc(C(=O)NC(Cc3ccc(Cl)cc3)C(=O)O)nc(-c3ccc(-c4ccccc4)cc3)n2)CC1` (stereo not drawn) [Compound 42, 2-{[2-Biphenyl-4-yl-6-(4-methylpiperidin-1-yl)pyrimidine-4-carbonyl]amino}-3-(4-chlorophenyl)propionic acid], the IC50 in experiment [1] was > 100 µM; in experiment [2] it was 22.3 µM; in experiment [3], 4.8 µM.

Consider `O=C(NC(Cc1ccc(Cl)cc1)C(=O)O)c1cc(-c2ccc(C(F)(F)F)cc2)nc(N2CCN(c3ccccn3)CC2)n1` (stereo not drawn) [Compound 43, 3-(4-Chlorophenyl)-2-{[2-(4-pyridin-2-yl-piperazin-1-yl)-6-(4-trifluoromethyl-phenyl)pyrimidine-4-carbonyl]amino}propionic acid], for which the values for the IC50 in experiment [1], in experiment [2] and in experiment [3] were > 100 µM, 74.2 µM and 8.1 µM, respectively.

With `CC1CCN(c2nc(C(=O)N[C@@H](COCc3ccccc3)C(=O)O)cc(N3CCN(c4nccc(C(F)(F)F)n4)CC3)n2)CC1` [Compound 47, (S)-3-Benzyloxy-2-({2-(4-methylpiperidin-1-yl)-6-[4-(4-trifluoromethylpyrimidin-2-yl)piperazin-1-yl]pyrimidine-4-carbonyl}amino)propionic acid], the IC50 in experiment [1] was > 100 µM; in experiment [2] it was 10.4 µM; in experiment [3] it was 4.5 µM.

Take `CC1CCN(c2nc(C(=O)NC(Cc3ccc(Cl)cc3)C(=O)O)cc(N3CCN(c4nccc(C(F)(F)F)n4)CC3)n2)CC1` (stereo not drawn) [Compound 48, 3-(4-Chlorophenyl)-2-({2-(4-methylpiperidin-1-yl)-6-[4-(4-trifluoromethyl-pyrimidin-yl)piperazin-1-yl]pyrimidine-4-carbonyl}amino)propionic acid]: the IC50 in experiment [1] was > 100 µM; in experiment [2] it was 40 µM; in experiment [3] it was 1.3 µM.

With `CN(C)c1ccc(-c2nc(C(=O)N[C@@H](COCc3ccccc3)C(=O)O)cc(N3CCN(c4nccc(C(F)(F)F)n4)CC3)n2)cc1` [Compound 49, (S)-3-Benzyloxy-2-({2-(4-dimethylaminophenyl)-6-[4-(4-trifluoromethylpyrimidin-2-yl)piperazin-1-yl]pyrimidine-4-carbonyl}amino)propionic acid], the values for the half-maximal inhibitory concentration (IC50) in experiment [1], in experiment [2] and in experiment [3] were 92.6 µM, 7.2 µM and 5.9 µM, respectively.

`O=C(N[C@@H](COCc1ccccc1)C(=O)O)c1cc(N2CCN(c3nccc(C(F)(F)F)n3)CC2)nc(-c2ccc([N+](=O)[O-])cc2)n1` [Compound 51, (S)-3-Benzyloxy-2-({2-(4-nitrophenyl)-6-[4-(4-trifluoromethylpyrimidin-2-yl)-piperazin-1-yl]pyrimidine-4-carbonyl}amino)propionic acid]: the IC50 worked out at 55 µM in experiment [1], 84.5 µM in experiment [2] and 1.9 µM in experiment [3].

(Values after US20050282824A1, “Substituted pyrimidines as inhibitors of bacterial type III protein secretion systems” (priority 2004, published 2005).)
